From ChEMBL document CHEMBL4823263, “Discovery of 2-(3-(3-Carbamoylpiperidin-1-yl)phenoxy)acetic Acid Derivatives as Novel Small-Molecule Inhibitors of the β-Catenin/B-Cell Lymphoma 9 Protein-Protein Interaction” (J Med Chem, 2021) come the findings set out here.

For test [1], the system named is HCT-116. Put plainly: Antiproliferative activity against human HCT116 cells incubated for 72 hrs by MTS assay. The following applies: HCT-116, 72 h. It counts as functional, cell-based. On the technique in general: Tetrazolium dyes change colour on reduction, which living cells bring about.
Test [2] has as its system MDA-MB-231. In words: Antiproliferative activity against human MDA-MB-231 cells incubated for 72 hrs by MTS assay. It counts as functional, cell-based. The following applies: MDA-MB-231, 72 h.
In test [3] the test system is SW480. In words: Inhibition of Wnt/beta-catenin transactivation signalling in human SW480 cells harboring mutant tcf4 binding sites assessed as relative activity at 6.25 uM incubated for 24 hrs by FOPFlash luciferase assay relative to control. The class given is cell-based. Further details: scale not given: the % may be the effect or the level left.
Test [4] deals with SW480. Put plainly: Inhibition of Wnt/beta-catenin transactivation signalling in human SW480 cells harboring mutant tcf4 binding sites assessed as relative activity at 12.5 uM incubated for 24 hrs by FOPFlash luciferase assay relative to control. It counts as cell-based. Further details: scale not given: the % may be the effect or the level left.
Test [5] concerns the target Protein Wnt-3a (Mus musculus) (UniProt P27467). In words: Inhibition of mouse wnt3a expressed in human MDA-MB-231 cells assessed as cyclin D1 level at 10 uM incubated for […] by quantitative real-time PCR analysis relative to control. The class given is cell-based. Further details: scale not given: the % may be the effect or the level left. In general terms: In qPCR the cycle at which signal appears reflects the starting amount.

Test [6] has the same target. In words: Inhibition of mouse wnt3a expressed in human MDA-MB-231 cells assessed as cyclin D1 level at 30 uM incubated for […] by quantitative real-time PCR analysis relative to control. The class given is cell-based. Further details: scale not given: the % may be the effect or the level left.
Test [7] addresses Protein Wnt-3a (Homo sapiens) (UniProt P56704). Put plainly: Inhibition of Wnt3a in human SW480 cells assessed as Axin2 level at 3.3 uM incubated for […] by quantitative real-time PCR analysis relative to control. It counts as cell-based. Also noted: scale not given: the % may be the effect or the level left.
Test [8] has the same target. Put plainly: Inhibition of Wnt3a in human SW480 cells assessed as cyclin D1 level at 10 uM incubated for […] by quantitative real-time PCR analysis relative to control. The class given is cell-based. Further details: scale not given: the % may be the effect or the level left.
For test [9], the system named is SW480. Put plainly: Inhibition of Wnt signalling in human SW480 cells assessed as reduction in Axin2 expression incubated for 24 hrs by Western blot analysis. It counts as cell-based. (In general: A western blot detects proteins with antibodies after separation by electrophoresis.)
The target in test [10] is T1, Cadherin-1 (Homo sapiens) (UniProt P12830).
T1 sequence (whole entry): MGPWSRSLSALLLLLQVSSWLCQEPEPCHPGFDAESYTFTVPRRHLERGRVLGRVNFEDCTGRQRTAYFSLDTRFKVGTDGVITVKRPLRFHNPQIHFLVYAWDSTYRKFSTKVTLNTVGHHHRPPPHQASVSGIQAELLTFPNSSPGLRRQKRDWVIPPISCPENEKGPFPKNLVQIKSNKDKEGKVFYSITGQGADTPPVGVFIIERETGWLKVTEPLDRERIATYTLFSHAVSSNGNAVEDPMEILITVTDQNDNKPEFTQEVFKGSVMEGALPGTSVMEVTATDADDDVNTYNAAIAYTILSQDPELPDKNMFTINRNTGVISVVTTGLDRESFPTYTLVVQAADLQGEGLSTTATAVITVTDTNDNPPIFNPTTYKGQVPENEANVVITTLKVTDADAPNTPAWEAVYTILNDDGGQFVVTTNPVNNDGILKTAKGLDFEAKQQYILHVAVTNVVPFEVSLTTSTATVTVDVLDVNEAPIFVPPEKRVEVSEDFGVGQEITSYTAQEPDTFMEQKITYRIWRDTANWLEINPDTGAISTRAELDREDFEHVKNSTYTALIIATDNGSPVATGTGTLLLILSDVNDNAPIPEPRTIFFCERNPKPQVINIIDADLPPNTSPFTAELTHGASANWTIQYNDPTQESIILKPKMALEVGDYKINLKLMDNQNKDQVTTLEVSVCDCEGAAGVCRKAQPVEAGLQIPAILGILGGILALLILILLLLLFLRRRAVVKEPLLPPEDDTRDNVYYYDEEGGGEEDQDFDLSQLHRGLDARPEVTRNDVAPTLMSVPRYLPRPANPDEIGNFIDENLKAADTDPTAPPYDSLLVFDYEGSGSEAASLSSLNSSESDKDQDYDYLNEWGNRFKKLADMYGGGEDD
In words: Disruption of full length beta-catenin/E-cadherin interaction in human HCT116 cells incubated for 24 hrs by co-immunoprecipitation assay. The conditions noted are these: HCT-116. It counts as cell-based.

In test [11] the test system is SW480. Put plainly: Antiproliferative activity against human SW480 cells harboring empty pcDNA3.1 vector incubated for 72 hrs by MTS assay. It counts as functional, cell-based. The conditions noted are these: SW480, 72 h.
The target in test [12] is Protein Wnt-3a (Mus musculus) (UniProt P27467). In words: Inhibition of mouse wnt3a expressed in human MDA-MB-231 cells assessed as LEF1 level at 30 uM incubated for […] by quantitative real-time PCR analysis relative to control. Further details: scale not given: the % may be the effect or the level left. It counts as cell-based.
Protein Wnt-3a (Mus musculus), sequence (P27467 whole entry): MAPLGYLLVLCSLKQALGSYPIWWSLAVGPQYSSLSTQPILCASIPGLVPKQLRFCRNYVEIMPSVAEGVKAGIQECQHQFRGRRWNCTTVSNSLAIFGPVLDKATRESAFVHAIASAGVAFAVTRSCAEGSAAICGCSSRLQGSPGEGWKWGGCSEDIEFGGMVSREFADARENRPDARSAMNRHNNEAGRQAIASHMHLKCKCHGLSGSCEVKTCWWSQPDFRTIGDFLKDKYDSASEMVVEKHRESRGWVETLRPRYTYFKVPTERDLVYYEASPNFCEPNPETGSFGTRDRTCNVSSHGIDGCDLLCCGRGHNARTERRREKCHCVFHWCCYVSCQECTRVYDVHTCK

Active and inactive are the calls of the source. The rule behind the calls is not given here.

Protein Wnt-3a (Homo sapiens), sequence (P56704 whole entry): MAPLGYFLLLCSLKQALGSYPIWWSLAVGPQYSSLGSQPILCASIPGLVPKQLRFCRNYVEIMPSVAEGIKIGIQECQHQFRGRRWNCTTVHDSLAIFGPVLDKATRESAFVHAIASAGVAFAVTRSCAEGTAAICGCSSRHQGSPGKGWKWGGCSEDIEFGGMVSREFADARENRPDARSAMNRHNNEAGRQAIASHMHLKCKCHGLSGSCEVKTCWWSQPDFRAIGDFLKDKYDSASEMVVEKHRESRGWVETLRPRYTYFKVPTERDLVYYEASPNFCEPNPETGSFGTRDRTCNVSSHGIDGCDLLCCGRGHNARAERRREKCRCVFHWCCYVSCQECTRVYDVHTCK

One may read the IC50 as the concentration needed to halve the response being measured. `CC(C)(Oc1cccc(N2CCC[C@H](C(=O)N(Cc3ccc(-c4cccs4)cc3)C3CC3)C2)c1)C(=O)NS(=O)(=O)c1ccc(C#N)cc1`: the half-inhibitory concentration (IC50) in [1] was determined as 29.6 µM; in test [2] it was 14.3 µM; in [11], 19 µM. Moreover, the Activity in test [3] amounted to 97%; in test [4] it was 102%; in test [5], 77%; in test [6], 66%; in [7] it was 99%; in test [8], 40%. In addition, the Activity entry was “Dose-Dependent Effect” in test [9] and 76% in test [12]. The result in [10] was inactive.
